This note sets out measurements from patent US5726165A, “Derivatives of 4-(2-aminoethyl)phenoxymethyl-phosphonic and -phosphinic acid and pharmaceutical and veterinary uses therefor” (SmithKline Beecham p.l.c., priority 1994, dated 1998).

Test [1] has as its target T1, human β1-adrenoceptor (Homo sapiens, UniProt P08588).
T1 construct: expressed in transfected cells; host or cells: CHO cells (stably transfected subclones; membranes)
Put plainly: Antagonist binding at β1-adrenoceptors, displacement of [125I]-iodocyanopindolol. Particulars: CHO cell plasma membranes; from binding IC50 by Cheng-Prusoff equation; read-out: Beta-1 Ki. The protocol:
(§1) Antagonist and Agonist Activity at Human β1, β2, and β3 -Adrenoceptors.
(§2) Subclones of CHO cells are stably transfected with each of the human β1, β2 and β3 -adrenoceptors^1. Cells are then disrupted by immersion in ice-cold lysis buffer (10 mM TRIS, 2 mM EDTA, pH 7.4) containing protease inhibitors leupeptin and benzamidine (5 μg/ml) and soyabean trypsin inhibitor (10 μg/ml). Membranes are prepared by the method of Bouvier el. al.^2 and stored in 1 ml aliquots in liquid N2 for future use.
(§3) Antagonist Binding at β1, and β2 -Adrenoceptors
(§4) Displacement of [^125 I]-iodocyanopindolol from CHO cell plasma membranes transfected with either the human β1, or β2 -adrenoceptors is carried out by the method of Blin et. al.^5. Ki values (nM) are calculated from the binding IC50 values for each agonist, using the Cheng-Prusoff equation.
(In general: In a radioligand displacement assay an active substance lowers the binding of a labelled ligand.)

In test [2] the target is T2, human β2-adrenoceptor (Homo sapiens, UniProt P07550).
T2 construct: expressed in transfected cells; host or cells: CHO cells (stably transfected subclones; membranes)
T2 sequence (P07550 whole entry): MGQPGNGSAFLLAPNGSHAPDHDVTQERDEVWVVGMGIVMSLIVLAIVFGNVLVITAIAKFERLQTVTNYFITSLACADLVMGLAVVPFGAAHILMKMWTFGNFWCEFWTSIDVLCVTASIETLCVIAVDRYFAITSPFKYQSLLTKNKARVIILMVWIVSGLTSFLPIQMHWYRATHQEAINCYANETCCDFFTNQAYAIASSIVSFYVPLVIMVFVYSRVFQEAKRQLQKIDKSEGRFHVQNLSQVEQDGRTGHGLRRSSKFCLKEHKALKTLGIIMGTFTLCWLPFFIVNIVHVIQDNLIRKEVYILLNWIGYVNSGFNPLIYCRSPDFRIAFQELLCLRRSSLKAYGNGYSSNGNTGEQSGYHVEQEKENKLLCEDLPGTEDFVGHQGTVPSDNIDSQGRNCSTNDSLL
Put plainly: Antagonist binding at β2-adrenoceptors, displacement of [125I]-iodocyanopindolol. The following applies: CHO cell plasma membranes; from binding IC50 by Cheng-Prusoff equation; read-out: Beta-2 Ki. The procedure: as §1, §2, §3, §4

In test [3] the target is T3, human β3-adrenoceptor (Homo sapiens, UniProt P13945).
T3 construct: expressed in transfected cells; host or cells: CHO cells (stably transfected subclones; membranes)
T3 sequence (P13945 whole entry): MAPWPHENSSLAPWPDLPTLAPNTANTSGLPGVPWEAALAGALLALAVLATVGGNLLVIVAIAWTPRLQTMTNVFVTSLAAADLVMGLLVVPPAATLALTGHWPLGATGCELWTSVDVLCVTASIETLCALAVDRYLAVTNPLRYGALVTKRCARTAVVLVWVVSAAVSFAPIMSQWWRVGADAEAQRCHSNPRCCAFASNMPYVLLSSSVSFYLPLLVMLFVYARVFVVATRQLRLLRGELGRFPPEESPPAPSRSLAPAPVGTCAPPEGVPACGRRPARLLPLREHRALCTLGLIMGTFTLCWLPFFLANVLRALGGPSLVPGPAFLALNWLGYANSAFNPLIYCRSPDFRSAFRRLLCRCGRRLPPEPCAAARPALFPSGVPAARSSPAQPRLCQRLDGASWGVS
Put plainly: β3-adrenoceptor-mediated adenylyl cyclase activity (agonist). It is filed as biochemical. Particulars: CHO cell plasma membranes; for EC50: agonist concentration producing 50% activation of adenylyl cyclase, cAMP over 20 minutes, read-out: Beta-3 EC50; for Emax: maximum response relative to that produced by (-) isoprenaline, read-out: Beta-3 (IA), intrinsic activity. The procedure:
as §1, §2
β3 -Adrenoceptor-Mediated Adenylyl Cyclase Activity
Adenylyl cyclase activity is assayed by the method of Kirkham et. al.^3 by the addition of 40 μl (70-80 μg protein) to the incubation medium of the above CHO cell plasma membranes transfected with the human β3 -adrenoceptor. cAMP produced over 20 minutes is separated from ATP by the method of Salomon et al.^4. Agonist EC50 values and intrinsic activities are expressed as the concentration of agonist producing 50% activation of adenylyl cyclase and the maximum response produced by each agonist relative to that produced by (-) isoprenaline respectively.

Structures can show the parent of a compound that is named as a salt.

T1 sequence (P08588 whole entry): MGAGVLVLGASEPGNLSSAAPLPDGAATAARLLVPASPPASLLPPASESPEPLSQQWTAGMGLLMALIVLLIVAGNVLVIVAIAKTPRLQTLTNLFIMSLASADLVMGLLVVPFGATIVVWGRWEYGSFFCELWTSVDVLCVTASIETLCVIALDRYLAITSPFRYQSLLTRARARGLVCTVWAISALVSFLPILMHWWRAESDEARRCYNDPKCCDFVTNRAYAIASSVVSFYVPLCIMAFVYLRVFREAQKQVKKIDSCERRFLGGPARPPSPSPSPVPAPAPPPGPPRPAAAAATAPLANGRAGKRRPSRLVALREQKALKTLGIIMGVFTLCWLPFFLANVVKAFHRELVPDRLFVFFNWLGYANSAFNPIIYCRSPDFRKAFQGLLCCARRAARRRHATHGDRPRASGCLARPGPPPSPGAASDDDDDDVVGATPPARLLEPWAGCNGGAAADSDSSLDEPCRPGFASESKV

As for `C[C@H](Cc1ccc(OCP(=O)(O)c2ccccc2)cc1)NC[C@H](O)COc1ccc(O)c(CO)c1` (racemic) [Example 21, (SR)-4-{2-[2-Hydroxy-3-(4-hydroxy-3-hydroxymethylphenoxy)propylamino]propyl}phenoxymethyl-phenylphosphinic acid, lithium salt], the Ki (commonly a measure of affinity in units of concentration, obtained from inhibition or displacement) in test [1] was determined as 155 µM. The Ki in test [2] worked out at 15 µM. In test [3], the EC50 was 1.26 µM and the Emax was over 100%.
As for `C[C@H](Cc1ccc(OCP(=O)(O)OCCCOCc2ccccc2)cc1)NC[C@H](O)COc1ccc(O)c(CO)c1` [Example 17, (SR)-4-{2-[2-Hydroxy-3-(4-hydroxy-3-hydroxymethylphenoxy)propylamino]propyl}phenoxymethylphosphonic acid, (3-benzyloxypropyl)ester, lithium salt], the Ki in test [1] was 21 µM; in test [2] it was 10 µM. For the same compound, the EC50 in test [3] is 1.1 µM. The Emax in test [3] was found to be 70%.
`O=P(O)(COc1ccc(CCNC[C@H](O)COc2ccc(O)cc2)cc1)C1CCCCC1` [Example 29, (S)-4-{2-[2-Hydroxy-3-(4-hydroxyphenoxy)propylamino]ethyl}phenoxymethylcyclohexylphosphinic acid, lithium salt]: the Ki in test [1] came to 288 µM. Moreover, the Ki in test [2] turned out to be 269 µM. In test [3], the EC50 amounted to 1.7 µM and the Emax is 72%.
